Our source for the IC50 values is US6541503B2, “Substituted oxindole derivatives as protein tyrosine kinase and as protein serine/threonine kinase inhibitors” (SmithKline Beecham Corporation, priority 1997, dated 2003).

Read-outs that look alike come from different tables or passages of the source. A value given as a limit tells only on which side of the number the result lay.

Experiment [1] concerns RKO colon adenocarcinoma cells. As to the kind of experiment: FACS assay (cell death by flow cytometry), RKO. The experiment is classed as cell-based, human. Particulars: Homo sapiens, 72 h, read-out: FACS RKO IC50. How it is done:
These assays allow determination of both cell death and changes in cell cycle profile in cells following treatment of the compound. The assay is performend as follows:
1. Cells are incubated in DMEM to which 10% FCS has been added in a humidified incubator at 37° C. and 5% by volume of CO2 in air. The cells are innoculated in 6-well plates at a density of 0.5-5×10^5 cells per well.
2. The test compound is added in serial dilutions 24-36 h after plating in 0.5% DMSO. The plates are then incubated a further 72 h in the presence of the compound. During this time, cells in control cultures undergo at least three cell divisions.
3. After incubation, the media is collected and cells are harvested by trypsinization. The cells and media are pooled and pelleted by centrifugation.
4. The cell pellet is fixed in a final volume of 3 mL of 50% ice cold MeOH and incubated for a minimum of 30 min at −20° C.
5. The cells are pelleted by centrifugation and resuspended in 0.5 mL PBS containing 1%FCS, […] Propidium Iodide (PI) and 5 mg/mL RNase A and incubated 30 min at 37° C. in the dark.
6. The samples are analysed by flow cytometry using the relative incorporation of PI as a measure of DNA content of each cell. The % Dead cells is recorded as % of events with less than 2N DNA.
(§1) HDF are normal diploid fibroblast cells. RKO are colon adenocarcinoma cells and MES/SA are […].
A general note: In flow cytometry, cells or beads pass a laser one at a time.

Experiment [2] concerns human diploid fibroblasts (HDF-3). As to the kind of experiment: G1-S progression assay (BrdU incorporation). The experiment is classed as cell-based. How it is done:
This assay is designed to determine the ability of compounds to inhibit progression of cells from G1 into S-phase. […] The protocol is as follows:
(1) Grow human diploid fibroblasts (HDF-3) in 100 mm tissue culture dish to confluency. (2) Plate 6-7×10^3 cells/well in a 96 well plate in 100 μl of DMEM. (3) After 16-17 h add various dilutions of test compounds (0.045-100 μM). Dilute compound in DMEM containing DMSO and add 100 μl to each well so that the DMSO conc. is 0.6-0.8% in 200 μl final volume. (4) Two h after addition of compound, add 20 ul of 100 μM BrdU (final conc. 10 μM) Make 100 μM solution in DMEM from 10 mM stock solution. (5) After 4 h, add 200 μl PBS to each well and remove the contents of the wells by inverting the plate and soaking on to the paper towel. Repeat the washing step three times, with 400 ul PBS each time. (6) Fix the cells and denature the DNA by adding 200 μl fixation/denaturation solution to each well for 30-40 min. (7) Remove the fixation/denaturation solution by tapping the plate on the paper towel and add 75 ul of anti BrdU peroxidase antibody to each well. (dilute the antibody to 0.1 U/mL from 15 U/mL stock in PBS containing 1% BSA, Fraction V). Incubate the plate O/N at 4° C. (8) Remove the antibody solution and wash wells four times with 400 μl of PBS. Let the wash solution stay for 3-4 min during each wash. (9) Drain the wells and add 100 μl of chemiluminiscence Elisa reagent (Prepare the reagent 15-20 min before use to bring it to rt by mixing 100 parts of reagent A with 1 part of reagent B). (10) Read the plate in a luminometer. Take 2-3 readings within 6-7 min. Perform the following controls:
Deoxybromouridine (BrdU), anti BrdU peroxidase antibodies, fixation/denaturation solution, chemiluminiscence reagent and BSA Fraction V, were obtained from Boehringer Mannheim. The 96-well white plate with clear bottom were purchased from Corning Costar Corporation. Dulbecco's Modified Eagle Medium containing high glucose, L-glutamine and pyridoxine HCl was obtained from GIBCO BRL.
Background: Incorporation of labelled thymidine or its analogues reports DNA synthesis.

The test system of experiment [3] is RKO colon adenocarcinoma cells. The experiment is described as follows: MTT assay, RKO. The experiment is classed as cell-based, human. How it is done: Compounds are tested for their ability to inhibit cell proliferation and cell viability. The metabolic conversion of 3-(4,5-dimethylthiazol-2-yl)-2,5-diphenyltetrazolium bromide (MTT, Sigma #M2128) to a reduced form is a commonly used measure of cellular viability. Following is the procedure:
Cells are maintained in 75 cm^2 tissue culture flasks until ready for use. The cells are grown and plated for the assay in Dulbecco's modified Eagle's media (DMEM) containing 10% fetal bovine serum. For example, the following cell lines can be used: a) human foreskin fibroblasts (HFF); b) HT29 (human colon carcinoma cell line); c)MDA-MB-468 (human breast carcinoma cell line); d) RKO (human colon adenocarcinoma cell line); e) SW620 (human colon carcinoma cell line); f) A549 (human lung carcinoma cell line); and g) MIA PACA (human pancreatic carcinoma cell line). Cells are maintained at 37° C. in 10% CO2, 90% humidified air. Cells are plated in 96-well tissue culture plates at the densities listed below. 100 μL of cell suspension is added to each well of the 96-well plate except the top row of the plate which contains no cells and serves as a reference for the spectrophotometer.
Cells are incubated overnight in DMEM containing 10% fetal bovine serum at 37° C. in 10% CO2, 90% humidified air prior to dosing. […] Compounds with solubilities of less than 30 μM are dosed at the highest soluble concentration. Stock solutions of compounds are made in 100% dimethyl sulfoxide (DMSO). Stock solutions are diluted in DMEM containing 100 μg/ml gentamicin and 0.3 to 0.6% DMSO at the twice the highest concentration to be placed on the cells. If compounds have been dissolved in DMSO the final concentration of DMSO on the cells is kept below 0.3%. Three-fold serial dilutions are performed on each compound to prepare 10 concentrations of the compound for dosing. 100 μl of diluted compound is added to the 100 μl of media currently on the dish. For each concentration of compound, 2-4 replicate wells are prepared.
Cells are returned to incubator and allowed to proliferate in the presence of compound for 72 h before addition of MTT. MTT is prepared in phosphate buffered saline (Irvine Scientific #9240) at a concentration of 2 mg/ml. 50 μl per well of MTT solution is added to the 200 μl of media to yield a final concentration of 0.4 mg/ml and plates are returned to the incubator for 4 h. After 4 h incubation the media, compound and MTT mixture is aspirated from the plates and 100 μl of 100% DMSO is added to each well in addition to 25 μl of Sorenson's Buffer (0.1M glycine, 0.1M NaCl, pH 10.5). Quantitation of metabolic reduction of MTT in each plate is performed by reading optical density at 570 nm wavelength on a Molecular Devices UVmax microplate reader. Growth inhibition curves and 50% inhibitory concentrations are determined using Microsoft Excel.
as §1
For orientation: Tetrazolium assays rely on reduction of a dye to a coloured formazan, in cell work by metabolically active cells.

[4] abbreviates: Homo sapiens, Fibroblast; read-out: G1/S Chkpt IC50.
[5] abbreviates: Homo sapiens, 72 h; read-out: MTT RKO IC50.
[6] abbreviates: Homo sapiens, Fibroblast, read-out: G1/S Chkpt IC50.
The mark [7] stands for this setting: Homo sapiens, 72 h, read-out: MTT RKO IC50.

Consider `CS(=O)(=O)Cc1ccc(NC=C2C(=O)Nc3ccc4ncsc4c32)cc1` [Example 76, 8-(4-Methylsulfonylmethyl-phenylamino-methylene)-6,8-dihydro-1-thia-3,6-diaza-as-indacen-7-one], for which the IC50 is 1.1 to 5 µM in experiment [1] (50% cell death), 1.1 to 5 µM in experiment [2] (setting [4]) and above 5 µM in experiment [3] (setting [5]).
As to `O=C1Nc2ccc3ncsc3c2C1=CNc1ccc(S(=O)(=O)Nc2ccccn2)cc1` [Example 72, 4-[(7-Oxo-6,7-dihydro-1-thia-3,6-diaza-as-indacen-8-ylidenemethyl)-amino]-N-pyridin-2-yl-benzenesulfonamide], the IC50 in experiment [1], in experiment [2] (setting [6]) and in experiment [3] (setting [7]) was 1.1 to 5 µM in each case.
In the case of `CNS(=O)(=O)Cc1ccc(NN=C2C(=O)Nc3ccc4ncccc4c32)cc1` [Example 68, N-Methyl-C-{4-[N′-(2-oxo-2,3-dihydro-pyrrolo[3,2-f]quinolin-1-ylidene)-hydrazino]-phenyl}-methanesulfonamide], the IC50 in experiment [1] was 1.1 to 5 µM; in experiment [2] (setting [6]) it was 1.1 to 5 µM; in experiment [3] (setting [7]), above 5 µM.
Regarding `CC(C)(CO)CNS(=O)(=O)c1ccc(NC=C2C(=O)Nc3ccc4ncsc4c32)cc1` [Example 77, N-(3-Hydroxy-2,2-dimethyl-propyl)-4-[(7-oxo-6,7-dihydro-1-thia-3,6-diaza-as-indacen-8-ylidenemethyl)-amino]-benzenesulfonamide], the IC50 in experiment [1] (50% cell death), in experiment [2] (setting [4]) and in experiment [3] (setting [5]) was 1.1 to 5 µM in each case.
As for `CNS(=O)(=O)Cc1ccc(NN=C2C(=O)Nc3cc(C)c(O)c(C)c32)cc1` [Example 99], the IC50 in experiment [1] (50% cell death) is 0.1 to 0.5 µM; in experiment [2] (setting [4]) it was 1.1 to 5 µM; in experiment [3] (setting [5]), 0.1 to 0.5 µM.
